Measured values as given in patent US7915293B2, “Ubiquitin ligase inhibitors” (Rigel Pharmaceuticals, Inc., priority 2003, dated 2011).

Target: E3 (His-APC11/APC2-"APC") (Homo sapiens, UniProt Q9NYG5+Q9UJX6)
Experiment: Plate-based E3 ligase assay (APC FLAG), auto-ubiquitination
Assay type: biochemical
Design: key: “+” indicates that the compound exibits inhibitory activity; “−” indicates that low or no inhibitory activity was observed
Conditions: for APC Flag (2 pt): 2 concentrations tested; for APC Flag 8 pt: 8 concentrations tested
Procedure: E3 (His-APC11/APC2-“APC”) auto-ubiquitination was measured as described in U.S. patent application Ser. No. 09/826,312 (Publication No. US-2002-0042083-A1), which is incorporated herein in its entirety. Details of the protocol are described below. Activity in the presence of the compound was determined relative to a parallel control in which only DMSO was added. Values of the IC50 were typically determined using 6 or 8 different concentrations of the compound, although as few as 2 concentrations may be used to approximate the IC50 value.
Nickel-coated 96-well plates (Pierce 15242) were blocked for 1 hour with 100 μl of blocking buffer at room temperature. The plates were washed 4 times with 225 μl of 1×PBS and 80 μl of the reaction buffer were added that contained 100 ng/well of Flag-ubiquitin. To this, 10 μl of the test compound diluted in DMSO were added. After the test compound was added, 10 μl of E1 (human), E2 (Ubch5c), and APC in Protein Buffer was added to obtain a final concentration of 5 ng/well of E1, 20 ng/well of E2 and 100 ng/well of APC. The plate were shaken for 10 minutes and incubated at room temperature for 1 hour. After incubation, the plates were washed 4 times with 225 μl of 1×PBS and 100 μl/well of Antibody Mix were added to each well. The plates were incubate at room temperature for another hour after which they were washed 4 times with 225 μl of 1×PBS and 100 μl/well of Lumino substrate were added to each well. The luminescence was measured by using a BMG luminescence microplate reader.
To prepare the Blocking Buffer (1 liter; 1% Casein in 1×PBS), 10 grams of Casein (Hammersten Grade Casein from Gallard-Schlesinger Inc. #440203) were placed into 1 liter of 1×PBS, stirred on a hot plate and kept between 50-60° C. for an hour. The buffer was allowed to cool to room temperature and then filtered using a Buchner Funnel (Buchner filter funnel 83 mm 30310-109) and Whatman filter paper (Whatman Grade No. 1 Filter paper 28450-070). It was stored at 4° C. until used.
The reaction buffer consisted of 62.5 mM Tris pH 7.6 (Trizma Base—Sigma T-8524), 3 mM MgCl2 (Magnesium Chloride—Sigma M-2393), 1 mM DTT (Sigma D-9779), 2.5 mM ATP (Roche Boehringer Mann Corp. 635-316), 100 ng/well of Flag-ubiquitin, 0.1% BSA (Sigma A-7906), and 0.05% Tween-20 (Sigma P-7949).
The Protein Buffer consisted of 20 mM Tris pH 7.6, 10% glycerol (Sigma G-5516) and 1 mM DTT.
The antibody mix consisted of 0.25% BSA (Sigma A-7906) in 1×PBS, 1/50,000 anti-Flag (Sigma F-3165), 1/100,000 of anti-Mouse IgG-HRP (Jackson Immunoresearch #115-035-146).
The substrate mix consisted of SuperSignal Substrate from Pierce (catalog number 37070ZZ) and was prepared by mixing 100 ml of the peroxide solution, 100 ml of the enhancer solution and 100 ml of Milli-Q® water.

Chain of E3 (His-APC11/APC2-"APC") (Q9NYG5 whole entry): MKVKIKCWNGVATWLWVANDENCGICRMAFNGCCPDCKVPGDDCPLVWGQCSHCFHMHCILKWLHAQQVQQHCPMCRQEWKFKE
Chain of E3 (His-APC11/APC2-"APC") (Q9UJX6 whole entry): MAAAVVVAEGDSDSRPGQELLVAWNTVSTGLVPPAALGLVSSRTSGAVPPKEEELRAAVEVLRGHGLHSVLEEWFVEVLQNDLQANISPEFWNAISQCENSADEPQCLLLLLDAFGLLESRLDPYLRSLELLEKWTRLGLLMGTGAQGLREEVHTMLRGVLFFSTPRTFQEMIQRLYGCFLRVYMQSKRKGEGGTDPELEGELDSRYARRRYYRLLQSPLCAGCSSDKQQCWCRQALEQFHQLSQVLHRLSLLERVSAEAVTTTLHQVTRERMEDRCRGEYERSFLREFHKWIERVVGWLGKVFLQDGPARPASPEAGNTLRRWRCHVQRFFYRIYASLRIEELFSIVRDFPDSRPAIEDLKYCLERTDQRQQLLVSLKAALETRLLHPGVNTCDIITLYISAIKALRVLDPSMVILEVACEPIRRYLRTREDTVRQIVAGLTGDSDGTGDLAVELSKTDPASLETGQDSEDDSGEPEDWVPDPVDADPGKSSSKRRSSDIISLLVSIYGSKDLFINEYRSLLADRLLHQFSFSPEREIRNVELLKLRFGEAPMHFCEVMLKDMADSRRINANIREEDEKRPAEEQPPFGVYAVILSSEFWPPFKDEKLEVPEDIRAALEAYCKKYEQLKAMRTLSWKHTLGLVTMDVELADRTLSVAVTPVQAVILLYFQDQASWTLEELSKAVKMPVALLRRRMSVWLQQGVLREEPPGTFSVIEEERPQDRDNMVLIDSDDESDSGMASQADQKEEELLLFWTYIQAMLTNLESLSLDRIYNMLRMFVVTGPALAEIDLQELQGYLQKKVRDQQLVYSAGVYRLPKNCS

SMILES	APC Flag (2 pt)	APC Flag 8 pt
Cc1c(Cl)cccc1NS(=O)(=O)c1ccc(Oc2ccc(Cl)cc2)cc1 [Example 194, N-(3-chloro-2-methylphenyl)-4-(4-chloro-phenoxy)benzenesulfonamide]	− (2 pt)	
O=[N+]([O-])c1ccc(Oc2c(Cl)cc(S(=O)(=O)Nc3ccc4c(c3)OCO4)cc2Cl)c(Cl)c1 [Example 162, N-1,3-benzodioxol-5-yl-3,5-dichloro-4-(2-chloro-4-nitrophenoxy)benzenesulfonamide]		+
O=[N+]([O-])c1ccc(Oc2c(Cl)cc(S(=O)(=O)NCc3ccncc3)cc2Cl)c(Cl)c1 [Example 133, 3,5-dichloro-4-(2-chloro-4-nitrophenoxy)-N-(pyridin-4-ylmethyl)benzenesulfonamide]		−
COc1ccc(Cl)cc1NS(=O)(=O)c1cc(Cl)c(Oc2ccc([N+](=O)[O-])cc2Cl)c(Cl)c1 [Compound 164, 3,5-dichloro-N-(5-chloro-2-methoxyphenyl)-(2-chloro-4-nitrophenoxy)lbenzenesulfonamide]		+
O=S(=O)(Nc1cccc(Br)c1)c1ccc(Oc2ccc(F)cc2)cc1 [Example 187, N-(3-bromophenyl)-4-(4-fluorophenoxy) benzenesulfonamide]	− (2 pt)	
CC(=N)NS(=O)(=O)c1cc(Cl)c(Oc2ccc([N+](=O)[O-])cc2)c(Cl)c1 [Example 63, N-{[3,5-dichloro-4-(4-nitrophenoxy)phenyl]sulfonyl}ethanimidamide]		−
N#Cc1ccc(N(S(=O)(=O)c2cc(Cl)c(Oc3ccc([N+](=O)[O-])cc3Cl)c(Cl)c2)S(=O)(=O)c2cc(Cl)c(Oc3ccc([N+](=O)[O-])cc3Cl)c(Cl)c2)cc1 [Example 136, 3,5-dichloro-4-(2-chloro-4-nitrophenoxy)-N-(4-cyanophenyl)-N-(1,3-dichloro-2-(2-chloro-4-nitrophenoxy)-5-sulfonylbenzene)-benzenesulfonamide]		+
N#Cc1c(Cl)cccc1Oc1ccc(S(=O)(=O)Nc2ccc(F)c(Cl)c2)cc1 [Example 182, 4-(3-chloro-2-cyanophenoxy)-N-(3-chloro-4-fluorophenyl)benzenesulfonamide]		−
O=[N+]([O-])c1ccc(Oc2c(Cl)cc(S(=O)(=O)NCc3ccc(Cl)cc3)cc2Cl)c(Cl)c1 [Example 125, 3,5-dichloro-N-(4-chlorobenzyl)-4-(2-chloro-4-nitrophenoxy)benzenesulfonamide]		−
COc1ccc(NS(=O)(=O)c2cc(Cl)c(Oc3ccc([N+](=O)[O-])cc3Cl)c(Cl)c2)c(OC)c1OC [Example 157, 3,5-dichloro-4-(2-chloro-4-nitrophenoxy)-N-(2,3,4-trimethoxyphenyl)benzenesulfonamide]		+
O=[N+]([O-])c1ccc(Oc2c(Cl)cc(S(=O)(=O)NCc3ccc(Br)cc3)cc2Cl)c(Cl)c1 [Compound 128, N-(4-bromobenzyl)-3,5-dichloro-4-(2-chloro-4-nitrophenoxy)benzenesulfonamide]		−
O=S(=O)(Nc1ccc(F)c(Cl)c1)c1ccc(Oc2ccc(Cl)cc2)cc1 [Example 195, N-(3-chloro-4-fluorophenyl)-4-(4-chloro-phenoxy)benzenesulfonamide]	− (2 pt)	
Cc1c(Cl)cccc1NS(=O)(=O)c1ccc(Oc2c(Cl)cccc2[N+](=O)[O-])cc1 [Example 184, N-(3-chloro-2-methylphenyl)-4-(2-chloro-6-nitrophenoxy)benzenesulfonamide]		−
COc1ccc(CCNS(=O)(=O)c2cc(Cl)c(Oc3ccc([N+](=O)[O-])cc3Cl)c(Cl)c2)cc1 [Example 129, 3,5-dichloro-4-(2-chloro-4-nitrophenoxy)-N-[2-(4-methoxyphenyl)ethyl]benzene-sulfonamide]		+
O=[N+]([O-])c1ccc(Oc2c(Cl)cc(S(=O)(=O)NCCN3CCOCC3)cc2Cl)c(Cl)c1 [Example 132, 3,5-dichloro-4-(2-chloro-4-nitrophenoxy)-N-(2-morpholin-4-ylethyl)benzenesulfonamide]		−
O=[N+]([O-])c1ccc(Oc2c(Cl)cc(S(=O)(=O)N3CCOCC3)cc2Cl)c(Cl)c1 [Example 15, 4-{[3,5-dichloro-4-(2-chloro-4-nitro-phenoxy)phenyl]sulfonyl}morpholine]		−
N=C(Nc1nc2ccccc2[nH]1)NS(=O)(=O)c1cc(Cl)c(Oc2ccc([N+](=O)[O-])cc2Cl)c(Cl)c1 [Example 225, N-[(1H-benzimidazol-2-ylamino)(imino)methyl]-3,5-dichloro-4-(2-chloro-4-nitro-phenoxy)benzenesulfonamide]		+
Cc1ccc(NS(=O)(=O)c2cc(Cl)c(Oc3ccc([N+](=O)[O-])cc3Cl)c(Cl)c2)cc1F [Example 198, 3,5-dichloro-4-(2-chloro-4-nitrophenoxy)-N-(3-fluoro-4-methylphenyl)benzene-sulfonamide]		+
NS(=O)(=O)c1cc(Cl)c(Oc2ccc([N+](=O)[O-])cc2Cl)c(Cl)c1 [Compound 124, 3,5-dichloro-4-(2-chloro-4-nitrophenoxy)benzenesulfonamide]		+
O=[N+]([O-])c1ccc(Oc2c(Cl)cc(S(=O)(=O)Nc3cccc(Cl)c3Cl)cc2Cl)c(Cl)c1 [Example 178, 3,5-dichloro-4-(2-chloro-4-nitrophenoxy)-N-(2,3-dichlorophenyl)benzenesulfonamide]		+
O=C(Nc1cc(C(F)(F)F)ccc1Cl)N1CCC(Oc2ccccc2C(F)(F)F)CC1 [Example 307, N-(2-chloro-5-(trifluoromethyl)phenyl)-4-(2-(trifluoromethyl)phenoxy)piperidine-1-carboxamide]		−
N#Cc1cccc(NS(=O)(=O)c2cc(Cl)c(Oc3ccc([N+](=O)[O-])cc3Cl)c(Cl)c2)c1 [Example 169, 3,5-dichloro-4-(2-chloro-4-nitrophenoxy)-N-(3-cyanophenyl)benzenesulfonamide]		+
Cc1cc(C)c(N(S(=O)(=O)c2cc(Cl)c(Oc3ccc([N+](=O)[O-])cc3Cl)c(Cl)c2)S(=O)(=O)c2cc(Cl)c(Oc3ccc([N+](=O)[O-])cc3Cl)c(Cl)c2)c(C)c1 [Example 142, 3,5-dichloro-4-(2-chloro-4-nitrophenoxy)-N-mesityl-N-(1,3-dichloro-2-(2-chloro-4-nitrophenoxy)-5-sulfonylbenzene)benzene-sulfonamide]		+
CNS(=O)(=O)c1cc(Cl)c(Oc2ccc([N+](=O)[O-])cc2Cl)c(Cl)c1 [Example 135, 3,5-dichloro-4-(2-chloro-4-nitrophenoxy)-N-methylbenzenesulfonamide]		+
Cc1c(Cl)cccc1N(S(=O)(=O)c1cc(Cl)c(Oc2ccc([N+](=O)[O-])cc2Cl)c(Cl)c1)S(=O)(=O)c1cc(Cl)c(Oc2ccc([N+](=O)[O-])cc2Cl)c(Cl)c1 [Example 143, 3,5-dichloro-N-(3-chloro-2-methylphenyl)-4-(2-chloro-4-nitrophenoxy)-N-(1,3-dichloro-2-(2-chloro-4-nitrophenoxy)-5-sulfonylbenzene)benzenesulfonamide]		+
O=[N+]([O-])c1ccc(Oc2c(Cl)cc(S(=O)(=O)Nc3cc(F)cc(F)c3)cc2Cl)c(Cl)c1 [Example 177, 3,5-dichloro-4-(2-chloro-4-nitrophenoxy)-N-(3,5-difluorophenyl)benzenesulfonamide]		+
N=C(Nc1ccc(Cl)cc1)NS(=O)(=O)c1cc(Cl)c(Oc2ccc([N+](=O)[O-])cc2Cl)c(Cl)c1 [Example 211, 3,5-dichloro-4-(2-chloro-4-nitrophenoxy)-N-[[(4-chlorophenyl)amino](imino)methyl] benzenesulfonamide]		+
CN(c1cc(Cl)cc(Cl)c1)S(=O)(=O)c1cc(Cl)c(Oc2ccc([N+](=O)[O-])cc2Cl)c(Cl)c1 [Example 190, 3,5-dichloro-4-(2-chloro-4-nitrophenoxy)-N-(3,5-dichlorophenyl)-N-methylbenzene-sulfonamide]	− (2 pt)	
